These results are taken from patent publication US9120805B2, “Substituted pyrrolo[1,2-A]pyrazin-1-ones and pyrazolo[1,5-A]pyrazin-4-ones as inhibitors of tankyrase and poly(ADP-ribose)polymerase activity” (Merck Patent GmbH, priority 2012, dated 2015).

Test [1] addresses T1, GST-tagged Tankyrase-1 (1023-1327 aa) (Homo sapiens, UniProt O95271).
T1 construct: GST-tagged Tankyrase-1 (1023-1327 aa)
As to the kind of experiment: Tankyrase 1 autoparsylation assay (HTRF enzyme assay). It is filed as biochemical. As to the method:
(§1) Biochemical Activity Testing of Tankyrase 1 and 2: Autoparsylation Assay
(§2) The autoparsylation assay is run in two steps: the enzymatic reaction in which GST-tagged Tankyrase-1, resp Tankyrase-2 transferred biotinylated ADP-ribose to itself from biotinylated NAD as co-substrate and the detection reaction where a time resolved FRET between cryptate labelled anti-GST bound to the GST tag of the enzyme and Xlent® labelled-streptavidin bound the biotin-parsylation residue is analysed. The autoparsylation activity was detectable directly via the increase in HTRF signal.
(§3) The autoparsylation assay is performed as 384-well HTRF® (Cisbio, Codolet, France) assay format in Greiner low volume nb 384-well microtiter plates and is used for high throughput screen. 250 nM GST-tagged Tankyrase-1 (1023-1327 aa), respectively about 250 nM GST-tagged Tankyrase-2 (873-1166 aa) and 5 μM bio-NAD (Biolog, Life science Inst., Bremen, Germany) as co-substrate are incubated in a total volume of 5 μl (50 mM HEPES, 4 mM Mg-chloride, 0.05% Pluronic F-68, 1.4 mM DTT, 0.5% DMSO, pH 7.7) in the absence or presence of the test compound (10 dilution concentrations) for 90 min at 30° C. The reaction is stopped by the addition of 1 μl 50 mM EDTA solution. 2 μl of the detection solution (1.6 μM SA-Xlent® (Cisbio, Codolet, France), 7.4 nM Anti-GST-K® (Eu-labelled anti-GST, Cisbio, Codolet, France) in 50 mM HEPES, 800 mM KF, 0.1% BSA, 20 mM EDTA, 0.1% CHAPS, pH 7.0) are added. After 1 h incubation at room temperature the HTRF is measured with an Envision multimode reader (Perkin Elmer LAS Germany GmbH) at excitation wavelength 340 nm (laser mode) and emission wavelengths 615 nm and 665 nm. The ratio of the emission signals is determined. The full value used is the inhibitor-free reaction. The pharmacological zero value used is XAV-939 (Tocris) in a final concentration of 5 μM. The inhibitory values (IC50) are determined using either the program Symyx Assay Explorer® or Condosseo® from GeneData.

Test [2] has as its target T2, GST-tagged Tankyrase-2 (873-1166 aa) (Homo sapiens, UniProt Q9H2K2).
T2 construct: GST-tagged Tankyrase-2 (873-1166 aa)
Briefly: Tankyrase 2 autoparsylation assay (HTRF enzyme assay). The test is classed as biochemical. The procedure: as §1, §2, §3
Background: In TR-FRET formats the signal depends on donor and acceptor labels being close together.

The target in the next test is T3, His-tagged Parp-1 (Homo sapiens, UniProt P09874).
T3 construct: purchased Enzo Life Sciences GmbH
Briefly: PARP-1 autoparsylation assay (HTRF). It is filed as biochemical. As to conditions: PARP-1 autoparsylation HTRF assay. From the text:
Description of the PARP1 Assay
Biochemical Activity Testing of PARP-1: Autoparsylation Assay
The autoparsylation assay is run in two steps: the enzymatic reaction in which
His-tagged Parp-1 transfers biotinylated ADP-ribose/ADP-ribose to itself from biotinylated NAD/NAD as co-substrate and the detection reaction where a time resolved FRET between cryptate labelled anti-His antibody bound to the His tag of the enzyme and Xlent® labelled-streptavidin bound the biotin-parsylation residue is analysed. The autoparsylation activity is detectable directly via the increase in HTRF signal.
The autoparsylation assay is performed as 384-well HTRF® (Cisbio, Codolet, France) assay format in Greiner low volume nb 384-well microtiter plates. 35 nM His-tagged Parp-1 (human, recombinant, Enzo Life Sciences GmbH, Lörrach, Germany) and a mixture of 125 nM bio-NAD (Biolog, Life science Inst., Bremen, Germany) and 800 nM NAD as co-substrate are incubated in a total volume of 6 μl (100 mM Tris/HCl, 4 mM Mg-chloride, 0.01% IGEPAL® CA630, 1 mM DTT, 0.5% DMSO, pH 8, 13 ng/μl activated DNA (BPS Bioscience, San Diego, US)) in the absence or presence of the test compound (10 dilution concentrations) for 150 min at 23° C. The reaction is stopped by the addition of 4 μl of the Stop/detection solution (70 nM SA-Xlent® (Cisbio, Codolet, France), 2.5 nM Anti-His-K® (Eu-labelled anti-His, Cisbio, Codolet, France) in 50 mM HEPES, 400 mM KF, 0.1% BSA, 20 mM EDTA, pH 7.0). After 1 h incubation at room temperature the HTRF is measured with an Envision multimode reader (Perkin Elmer LAS Germany GmbH) at excitation wavelength 340 nm (laser mode) and emission wavelengths 615 nm and 665 nm. The ratio of the emission signals is determined. The full value used is the inhibitor-free reaction. The pharmacological zero value used is Olaparib (LClabs, Woburn, US) in a final concentration of 1 μM. The inhibitory values (IC50) are determined using either the program Symyx Assay Explorer® or Condosseo® from GeneData.

Another test deals with tankyrase 1/2. As to the kind of experiment: Cellular inhibition of Tankyrase: increase of Axin2 level in DLD1 cells (Luminex). It is filed as cell-based. As to conditions: 24 hours, read-out: EC50 tankyrase 1/2 (cell assay). The procedure:
Measurement of Cellular Inhibition of Tankyrase
Since Tankyrases have been described to modulate cellular level of Axin2 (Huang et al., 2009; Nature) the increase of Axin2 level is used as read-out for determination of cellular inhibition of Tankyrases in a Luminex based assay.
Cells of the colon carcinoma cell line DLD1 are plated in 96 well plates with 1.5×10^4 cells per well. Next day, cells are treated with a serial dilution of test compound in seven steps as triplicates with a final DMSO concentration of 0.3%. After 24 hours, cells are lysed in lysis buffer (20 mM Tris/HCl pH 8.0, 150 mM NaCl, 1% NP40, 10% Glycerol) and lysates are cleared by centrifugation through a 96 well filter plate (0.65 μm). Axin2 protein is isolated from cell lysates by incubation with a monoclonal anti-Axin2 antibody (R&D Systems #MAB6078) that is bound to fluorescent carboxybeads. Then, bound Axin2 is specifically detected with a polyclonal anti-Axin2 antibody (Cell Signaling #2151) and an appropriate PE-fluorescent secondary antibody. The amount of isolated Axin2 protein is determined in a Luminex^200 machine (Luminex Corporation) according to the manufacturer's instruction by counting 100 events per well. Inhibition of Tankyrase by test compounds results in higher levels of Axin2 which directly correlates with an increase of detectable fluorescence. As controls cells are treated with solvent alone (neutral control) and with a Tankyrase reference inhibitor IWR-2 (3E-06 M) which refers as control for maximum increase of Axin2. For analysis, the obtained data are normalized against the untreated solvent control and fitted for determination of the EC50 values using the Assay Explorer software (Accelrys).

Counter-ions that a name gives are not always drawn.

T1 sequence (O95271 1023-1327): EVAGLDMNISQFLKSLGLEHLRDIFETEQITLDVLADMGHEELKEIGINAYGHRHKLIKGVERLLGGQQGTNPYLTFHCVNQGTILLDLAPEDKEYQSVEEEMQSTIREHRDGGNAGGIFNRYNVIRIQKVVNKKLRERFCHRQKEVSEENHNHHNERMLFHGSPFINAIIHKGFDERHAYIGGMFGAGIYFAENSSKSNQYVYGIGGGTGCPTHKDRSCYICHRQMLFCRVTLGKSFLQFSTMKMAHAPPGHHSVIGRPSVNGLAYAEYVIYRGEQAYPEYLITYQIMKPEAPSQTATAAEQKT
T3 sequence (P09874 whole entry): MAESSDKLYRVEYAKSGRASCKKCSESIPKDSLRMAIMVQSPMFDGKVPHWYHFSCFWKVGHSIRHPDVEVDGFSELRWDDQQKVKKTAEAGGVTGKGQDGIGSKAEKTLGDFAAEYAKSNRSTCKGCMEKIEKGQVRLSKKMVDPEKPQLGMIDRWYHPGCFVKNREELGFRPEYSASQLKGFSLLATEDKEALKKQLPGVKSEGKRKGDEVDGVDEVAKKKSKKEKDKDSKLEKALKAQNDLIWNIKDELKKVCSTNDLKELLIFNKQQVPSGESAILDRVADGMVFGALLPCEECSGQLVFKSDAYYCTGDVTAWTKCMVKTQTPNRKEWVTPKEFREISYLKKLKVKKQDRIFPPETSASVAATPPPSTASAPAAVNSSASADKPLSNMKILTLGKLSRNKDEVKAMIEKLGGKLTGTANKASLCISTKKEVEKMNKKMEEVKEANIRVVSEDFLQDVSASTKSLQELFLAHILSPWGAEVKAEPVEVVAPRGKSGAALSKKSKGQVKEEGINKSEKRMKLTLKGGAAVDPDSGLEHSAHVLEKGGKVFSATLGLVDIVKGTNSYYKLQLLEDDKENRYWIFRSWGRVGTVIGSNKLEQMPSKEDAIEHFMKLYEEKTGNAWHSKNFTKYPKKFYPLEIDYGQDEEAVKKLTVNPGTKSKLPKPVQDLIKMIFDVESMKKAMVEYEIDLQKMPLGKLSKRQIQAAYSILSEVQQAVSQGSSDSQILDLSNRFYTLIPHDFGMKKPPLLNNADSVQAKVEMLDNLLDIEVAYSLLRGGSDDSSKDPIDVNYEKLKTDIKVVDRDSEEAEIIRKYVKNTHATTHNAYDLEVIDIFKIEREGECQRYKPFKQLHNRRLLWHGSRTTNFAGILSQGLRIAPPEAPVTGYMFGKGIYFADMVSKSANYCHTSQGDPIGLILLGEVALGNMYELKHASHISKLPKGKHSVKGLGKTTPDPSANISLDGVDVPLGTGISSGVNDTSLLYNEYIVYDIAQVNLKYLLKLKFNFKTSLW
T2 sequence (Q9H2K2 873-1166): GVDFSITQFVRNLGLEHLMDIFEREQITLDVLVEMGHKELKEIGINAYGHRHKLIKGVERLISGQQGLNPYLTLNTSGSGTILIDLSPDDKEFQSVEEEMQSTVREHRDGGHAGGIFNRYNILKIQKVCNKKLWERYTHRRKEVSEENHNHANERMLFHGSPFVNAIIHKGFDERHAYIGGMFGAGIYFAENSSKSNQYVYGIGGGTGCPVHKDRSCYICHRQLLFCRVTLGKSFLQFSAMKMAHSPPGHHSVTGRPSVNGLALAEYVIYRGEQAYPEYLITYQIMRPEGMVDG

On to `O=c1[nH]c(-c2ccc(OCc3ccccc3)cc2)cn2cccc12` [Compound A1, 3-(4-benzyloxy-phenyl)-2H-pyrrolo[1,2-a]pyrazin-1-one], for which the values for the concentration for half-maximal inhibition (IC50) (in test [1]; in test [2]; against His-tagged Parp-1) were under 300 nM, 300 to 3000 nM and 300 to 3000 nM, respectively.
For `O=c1[nH]c(-c2ccc([N+](=O)[O-])cc2)cn2cccc12` [Compound A6, 3-(4-nitro-phenyl)-2H-pyrrolo[1,2-a]pyrazin-1-one], the IC50 in test [1] was under 300 nM; in test [2], under 300 nM; on His-tagged Parp-1, 300 to 3000 nM.
For `O=c1[nH]c(-c2ccc(C(F)(F)F)cc2)cn2cccc12` [Compound A13, 3-(4-trifluoromethyl-phenyl)-2H-pyrrolo[1,2-a]pyrazin-1-one], the results for the IC50 (in test [1]; in test [2]; against His-tagged Parp-1) were 300 to 3000 nM, under 300 nM and 300 to 3000 nM, respectively. For the same compound, the EC50 in the test with tankyrase 1/2 was 300 to 3000 nM.
Turning to `O=c1[nH]c(-c2cccc(Cl)c2)cn2cccc12` [Compound A3, 3-(3-chloro-phenyl)-2H-pyrrolo[1,2-a]pyrazin-1-one], the half-maximal inhibitory concentration (IC50) (in test [1]; in test [2]; against His-tagged Parp-1) was 300 to 3000 nM throughout.
On to `O=c1[nH]c(-c2ccc3c(c2)OCO3)cn2cccc12` [Compound A9, 3-benzo[1,3]dioxol-5-yl-2H-pyrrolo[1,2-a]pyrazin-1-one], for which the figures for the concentration for half-maximal inhibition (IC50) (in test [1]; in test [2]; on His-tagged Parp-1) were 300 to 3000 nM, 300 to 3000 nM and 3000 to 50000 nM, respectively.
`Cc1ccc2c(=O)[nH]c(-c3ccc(Br)cc3)cn12` [Compound A94]: the IC50 in test [1] is under 300 nM; in test [2], 300 to 3000 nM. In addition, the EC50 in the test with tankyrase 1/2 was 300 to 3000 nM.
In the case of `O=c1[nH]c(-c2ccc(-c3cnn(CCO)c3)cc2)cn2cccc12` [Compound A32, 3-{4-[1-(2-hydroxy-ethyl)-1H-pyrazol-4-yl]-phenyl}-2H-pyrrolo[1,2-a]pyrazin-1-one], the half-maximal inhibitory concentration (IC50) in test [1] and in test [2] was under 300 nM each time. Moreover, in the test on tankyrase 1/2, the EC50 was 300 to 3000 nM.
As for `O=c1[nH]c(-c2ccc(C3(O)CNC3)cc2)cn2cccc12` [Compound A86, 3-[4-(3-hydroxy-azetidin-3-yl)-phenyl]-2H-pyrrolo[1,2-a]pyrazin-1-one hydrochloride], the IC50 in test [1] and in test [2] was 300 to 3000 nM each time. Further, the EC50 with tankyrase 1/2 lay within 3000 to 50000 nM.
Take `Cc1cc2c(=O)[nH]c(-c3ccc(-c4cnn(C)c4)cc3)cn2c1` [Compound A91]: the IC50 in test [1] was under 300 nM; in test [2], 300 to 3000 nM. Besides, in the test on tankyrase 1/2, the EC50 fell in the range of 300 to 3000 nM.
In the case of `COc1cccc(-c2cn3cccc3c(=O)[nH]2)c1` [Compound A4, 3-(3-methoxy-phenyl)-2H-pyrrolo[1,2-a]pyrazin-1-one], the IC50 (in test [1]; in test [2]; at His-tagged Parp-1) was 300 to 3000 nM each time.
As for `COc1ccc(-c2cn3cccc3c(=O)[nH]2)cc1` [Compound A7, 3-(4-methoxy-phenyl)-2H-pyrrolo[1,2-a]pyrazin-1-one], the IC50 in test [1] is under 300 nM; in test [2], 300 to 3000 nM; against His-tagged Parp-1, 300 to 3000 nM. In the test on tankyrase 1/2, the EC50 was in the range of 3000 to 50000 nM.
Regarding `COc1ccc(-c2cn3cccc3c(=O)[nH]2)cc1OC` [Compound A8, 3-(3,4-dimethoxy-phenyl)-2H-pyrrolo[1,2-a]pyrazin-1-one], the IC50 is 300 to 3000 nM in test [1], 3000 to 50000 nM in test [2] and 3000 to 50000 nM at His-tagged Parp-1.
As for `Cc1cc2c(=O)[nH]c(-c3ccc(OC(F)(F)F)cc3)cn2n1` [Compound A34, 2-methyl-6-(4-trifluoromethoxy-phenyl)-5H-pyrazolo[1,5-a]pyrazin-4-one], the IC50 was under 300 nM in test [1] and 300 to 3000 nM in test [2]. The EC50 in the test with tankyrase 1/2 was 300 to 3000 nM.
Regarding `COC(=O)c1ccc(-c2cn3cccc3c(=O)[nH]2)cc1` [Compound A28, 4-(1-oxo-1,2-dihydro-pyrrolo[1,2-a]pyrazin-3-yl)-benzoic acid methyl ester], the half-maximal inhibitory concentration (IC50) in test [1] was under 300 nM; in test [2], 300 to 3000 nM. Further, the EC50 in the test on tankyrase 1/2 was 300 to 3000 nM.
For `O=c1[nH]c(-c2ccc(F)cc2)cn2cccc12` [Compound A10, 3-(4-fluoro-phenyl)-2H-pyrrolo[1,2-a]pyrazin-1-one], the half-maximal inhibitory concentration (IC50) (in test [1]; in test [2]; on His-tagged Parp-1) was 300 to 3000 nM in each case.
Turning to `CC(C)(O)c1ccc(-c2cn3nc(C(F)(F)F)cc3c(=O)[nH]2)cc1` [Compound A69, 6-[4-(1-hydroxy-1-methyl-ethyl)phenyl]-2-trifluoromethyl-5H-pyrazolo[1,5-a]pyrazin-4-one], the IC50 in test [1] fell in the range of 300 to 3000 nM; in test [2], 3000 to 50000 nM. For the same compound, the EC50 in the test on tankyrase 1/2 fell in the range of 3000 to 50000 nM.
On to `Cn1cc(-c2ccc(-c3cn4cc(F)cc4c(=O)[nH]3)cc2)cn1` [Compound A90], for which the IC50 was under 300 nM in test [1] and 300 to 3000 nM in test [2]. In addition, the EC50 in the test with tankyrase 1/2 lay within 300 to 3000 nM.
Regarding `O=c1[nH]c(-c2ccc(C3CCNCC3)cc2)cn2cc(F)cc12` [Compound A77, 7-fluoro-3-(4-piperidin-4-yl-phenyl)-2H-pyrrolo[1,2-a]pyrazin-1-one], the IC50 in test [1] is under 300 nM; in test [2], 300 to 3000 nM. The EC50 with tankyrase 1/2 is 300 to 3000 nM.

A word on the IC50: it is the concentration at which inhibition is half-maximal.
